These results are taken from patent US20230310428A1, “EGFR INHIBITOR AND PREPARATION METHOD AND USE THEREOF” (HONGYUN BIOTECH CO., LTD., priority 2020, published 2023).

SMILES strings stand for the structures. Bounds are passed on as bounds.

What all share (assay): Growth inhibitory activity of compounds on BaF3 cell lines stably transfected with kinase (MTS, 48 h)
Holding throughout (format): cell-based

Assay [1] deals with T1, various mutants of kinase EGFR (BaF3 cell lines stably transfected with kinase) (Homo sapiens, UniProt P00533).
T1 construct: other: BaF3 cells stably transfected with EGFR Δ19Del; MTS, 48 h; other: BaF3 cell line stably transfected with EGFR Δ19Del
Particulars: BaF3 cells stably transfected with EGFR Δ19Del, read-out: IC50, growth inhibition, Δ19Del. The procedure, abridged: (§1)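 OD at 490 nm after 1-4 h MTS/PES incubation gave growth inhibition relative to 0.1% DMSO negative and cell-free medium blank. Compounds: 8-point 1/3 dilution from 10 µM, 48 h, 37 °C. IC50 from inhibition curves; duplicates.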

The target in assay [2] is T2, various mutants of kinase EGFR (BaF3 cell lines stably transfected with kinase) (Homo sapiens, UniProt P00533, C797S/L858R/T790M).
T2 construct: expressed in transfected cells; host or cells: BaF3
The following applies: BaF3 cells stably transfected with EGFR L858R/T790M/C797S, read-out: IC50, growth inhibition, L858R/T790M/C797S. The gist of the method: as §1

For assay [3], the target named is T3, various mutants of kinase EGFR (BaF3 cell lines stably transfected with kinase) (Homo sapiens, UniProt P00533, L858R).
T3 construct: expressed in transfected cells; host or cells: BaF3
Particulars: BaF3 cells stably transfected with EGFR L858R, read-out: IC50, growth inhibition, L858R. The gist of the method:
as §1

In assay [4] the target is T4, various mutants of kinase EGFR (BaF3 cell lines stably transfected with kinase) (Homo sapiens, UniProt P00533, L858R/T790M).
T4 construct: expressed in transfected cells; host or cells: BaF3
Particulars: BaF3 cells stably transfected with EGFR L858R/T790M, read-out: IC50, growth inhibition, L858R/T790M. The procedure, abridged: as §1

Assay [5] addresses T5, various mutants of kinase EGFR (BaF3 cell lines stably transfected with kinase) (Homo sapiens, UniProt P00533, T790M/C797S, form not given).
T5 construct: other: BaF3 cells stably transfected with EGFR Δ19Del/T790M/C797S; MTS, 48; other: BaF3 cell line stably transfected with EGFR Δ19Del/T790M/C7
The following applies: BaF3 cells stably transfected with EGFR Δ19Del/T790M/C797S, read-out: IC50, growth inhibition, Δ19Del/T790M/C797S. The gist of the method: as §1

Assay [6] deals with T6, various mutants of kinase EGFR (BaF3 cell lines stably transfected with kinase) (Homo sapiens, UniProt P00533, T790M, form not given).
T6 construct: other: BaF3 cells stably transfected with EGFR Δ19Del/T790M; MTS, 48 h; other: BaF3 cell line stably transfected with EGFR Δ19Del/T790M; MTS, 48
Particulars: BaF3 cells stably transfected with EGFR Δ19Del/T790M, read-out: IC50, growth inhibition, Δ19Del/T790M. The gist of the method: as §1

T4 sequence (P00533 25-1210 T790M/L858R): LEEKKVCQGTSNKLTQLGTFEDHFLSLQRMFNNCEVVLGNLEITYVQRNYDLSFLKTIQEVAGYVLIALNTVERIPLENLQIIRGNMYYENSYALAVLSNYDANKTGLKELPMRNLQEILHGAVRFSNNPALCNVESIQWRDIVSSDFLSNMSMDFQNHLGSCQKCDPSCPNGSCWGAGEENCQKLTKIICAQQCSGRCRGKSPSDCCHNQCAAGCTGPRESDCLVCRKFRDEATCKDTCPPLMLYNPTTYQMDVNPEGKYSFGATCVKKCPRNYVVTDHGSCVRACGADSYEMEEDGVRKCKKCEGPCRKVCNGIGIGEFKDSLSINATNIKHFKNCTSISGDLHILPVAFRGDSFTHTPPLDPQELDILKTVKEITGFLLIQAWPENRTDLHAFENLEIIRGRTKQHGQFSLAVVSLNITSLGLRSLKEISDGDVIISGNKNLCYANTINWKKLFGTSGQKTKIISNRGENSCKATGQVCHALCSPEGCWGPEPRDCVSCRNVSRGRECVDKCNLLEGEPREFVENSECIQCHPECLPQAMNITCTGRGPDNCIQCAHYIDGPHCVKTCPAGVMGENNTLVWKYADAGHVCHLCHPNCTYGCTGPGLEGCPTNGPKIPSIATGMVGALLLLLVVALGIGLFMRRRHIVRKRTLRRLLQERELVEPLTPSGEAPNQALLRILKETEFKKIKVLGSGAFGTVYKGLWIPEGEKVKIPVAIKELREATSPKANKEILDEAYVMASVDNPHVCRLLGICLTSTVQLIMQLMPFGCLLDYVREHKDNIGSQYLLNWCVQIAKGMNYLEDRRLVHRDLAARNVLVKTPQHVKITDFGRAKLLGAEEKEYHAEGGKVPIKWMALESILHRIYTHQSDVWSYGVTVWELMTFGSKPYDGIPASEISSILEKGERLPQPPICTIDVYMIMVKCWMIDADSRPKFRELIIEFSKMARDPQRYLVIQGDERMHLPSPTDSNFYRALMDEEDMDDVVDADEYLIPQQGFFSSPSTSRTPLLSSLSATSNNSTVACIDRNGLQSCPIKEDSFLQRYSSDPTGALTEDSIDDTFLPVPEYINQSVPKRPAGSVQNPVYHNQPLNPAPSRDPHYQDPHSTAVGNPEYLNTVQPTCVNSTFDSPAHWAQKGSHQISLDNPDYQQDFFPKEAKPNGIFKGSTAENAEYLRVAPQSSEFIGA
T3 sequence (P00533 25-1210 L858R): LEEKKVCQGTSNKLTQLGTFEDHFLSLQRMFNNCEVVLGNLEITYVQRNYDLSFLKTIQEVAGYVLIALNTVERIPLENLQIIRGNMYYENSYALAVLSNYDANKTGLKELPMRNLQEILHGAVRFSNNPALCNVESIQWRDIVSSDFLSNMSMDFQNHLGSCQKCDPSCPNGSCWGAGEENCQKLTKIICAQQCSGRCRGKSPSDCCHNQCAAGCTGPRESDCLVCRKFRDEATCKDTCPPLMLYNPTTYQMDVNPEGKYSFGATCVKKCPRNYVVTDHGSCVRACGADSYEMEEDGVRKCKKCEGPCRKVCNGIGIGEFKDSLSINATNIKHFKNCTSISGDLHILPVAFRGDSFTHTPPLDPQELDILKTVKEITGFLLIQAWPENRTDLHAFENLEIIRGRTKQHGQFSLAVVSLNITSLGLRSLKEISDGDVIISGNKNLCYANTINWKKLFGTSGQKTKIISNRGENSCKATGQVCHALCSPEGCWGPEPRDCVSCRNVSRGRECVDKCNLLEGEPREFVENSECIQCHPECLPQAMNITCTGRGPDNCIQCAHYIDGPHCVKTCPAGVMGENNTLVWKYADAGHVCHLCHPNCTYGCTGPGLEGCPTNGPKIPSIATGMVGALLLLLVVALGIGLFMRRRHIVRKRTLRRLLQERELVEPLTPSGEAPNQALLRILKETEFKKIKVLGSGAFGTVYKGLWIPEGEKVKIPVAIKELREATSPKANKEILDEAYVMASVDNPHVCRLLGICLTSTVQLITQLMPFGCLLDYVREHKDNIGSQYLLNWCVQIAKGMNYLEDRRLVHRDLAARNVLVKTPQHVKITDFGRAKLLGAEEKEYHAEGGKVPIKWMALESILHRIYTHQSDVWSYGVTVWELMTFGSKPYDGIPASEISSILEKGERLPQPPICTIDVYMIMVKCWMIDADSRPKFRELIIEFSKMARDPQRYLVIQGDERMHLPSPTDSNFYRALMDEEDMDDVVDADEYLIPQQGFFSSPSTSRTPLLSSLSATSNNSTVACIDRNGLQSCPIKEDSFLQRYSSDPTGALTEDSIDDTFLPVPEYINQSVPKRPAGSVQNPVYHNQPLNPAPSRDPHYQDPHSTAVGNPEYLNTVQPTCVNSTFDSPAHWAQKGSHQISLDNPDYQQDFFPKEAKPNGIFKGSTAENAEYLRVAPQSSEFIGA
T2 sequence (P00533 25-1210 T790M/C797S/L858R): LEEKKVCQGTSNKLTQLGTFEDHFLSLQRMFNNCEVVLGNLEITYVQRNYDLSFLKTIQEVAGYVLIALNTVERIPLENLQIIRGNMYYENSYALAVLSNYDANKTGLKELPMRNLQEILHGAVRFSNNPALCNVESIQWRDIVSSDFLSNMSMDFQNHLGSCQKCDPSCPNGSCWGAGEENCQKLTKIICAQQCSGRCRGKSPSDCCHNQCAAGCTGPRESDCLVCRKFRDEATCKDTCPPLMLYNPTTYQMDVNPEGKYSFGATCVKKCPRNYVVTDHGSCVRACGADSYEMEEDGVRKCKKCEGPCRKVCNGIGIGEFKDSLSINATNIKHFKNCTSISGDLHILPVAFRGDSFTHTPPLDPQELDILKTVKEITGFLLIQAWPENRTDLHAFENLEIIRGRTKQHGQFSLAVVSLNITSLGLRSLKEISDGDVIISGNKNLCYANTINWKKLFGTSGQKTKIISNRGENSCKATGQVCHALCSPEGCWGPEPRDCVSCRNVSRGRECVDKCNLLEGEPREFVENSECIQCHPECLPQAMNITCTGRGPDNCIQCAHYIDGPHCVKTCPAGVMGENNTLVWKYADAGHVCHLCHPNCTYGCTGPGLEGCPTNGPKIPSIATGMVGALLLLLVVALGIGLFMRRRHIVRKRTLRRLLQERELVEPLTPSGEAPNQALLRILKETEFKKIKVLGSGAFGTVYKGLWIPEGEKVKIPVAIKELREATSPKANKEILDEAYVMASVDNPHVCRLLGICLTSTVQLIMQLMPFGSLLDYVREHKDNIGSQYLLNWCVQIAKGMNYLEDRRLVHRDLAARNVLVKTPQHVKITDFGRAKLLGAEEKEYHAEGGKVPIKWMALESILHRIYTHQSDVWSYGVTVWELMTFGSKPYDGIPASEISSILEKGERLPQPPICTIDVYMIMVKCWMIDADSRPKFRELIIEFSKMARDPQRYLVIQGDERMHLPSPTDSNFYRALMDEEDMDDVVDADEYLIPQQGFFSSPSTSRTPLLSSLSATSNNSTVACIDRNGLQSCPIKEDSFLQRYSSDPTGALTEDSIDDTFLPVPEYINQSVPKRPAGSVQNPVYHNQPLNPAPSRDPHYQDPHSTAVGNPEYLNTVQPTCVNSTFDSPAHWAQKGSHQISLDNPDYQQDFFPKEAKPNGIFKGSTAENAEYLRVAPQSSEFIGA
T1 sequence (P00533 with tags, fused parts or gaps DEL746-750): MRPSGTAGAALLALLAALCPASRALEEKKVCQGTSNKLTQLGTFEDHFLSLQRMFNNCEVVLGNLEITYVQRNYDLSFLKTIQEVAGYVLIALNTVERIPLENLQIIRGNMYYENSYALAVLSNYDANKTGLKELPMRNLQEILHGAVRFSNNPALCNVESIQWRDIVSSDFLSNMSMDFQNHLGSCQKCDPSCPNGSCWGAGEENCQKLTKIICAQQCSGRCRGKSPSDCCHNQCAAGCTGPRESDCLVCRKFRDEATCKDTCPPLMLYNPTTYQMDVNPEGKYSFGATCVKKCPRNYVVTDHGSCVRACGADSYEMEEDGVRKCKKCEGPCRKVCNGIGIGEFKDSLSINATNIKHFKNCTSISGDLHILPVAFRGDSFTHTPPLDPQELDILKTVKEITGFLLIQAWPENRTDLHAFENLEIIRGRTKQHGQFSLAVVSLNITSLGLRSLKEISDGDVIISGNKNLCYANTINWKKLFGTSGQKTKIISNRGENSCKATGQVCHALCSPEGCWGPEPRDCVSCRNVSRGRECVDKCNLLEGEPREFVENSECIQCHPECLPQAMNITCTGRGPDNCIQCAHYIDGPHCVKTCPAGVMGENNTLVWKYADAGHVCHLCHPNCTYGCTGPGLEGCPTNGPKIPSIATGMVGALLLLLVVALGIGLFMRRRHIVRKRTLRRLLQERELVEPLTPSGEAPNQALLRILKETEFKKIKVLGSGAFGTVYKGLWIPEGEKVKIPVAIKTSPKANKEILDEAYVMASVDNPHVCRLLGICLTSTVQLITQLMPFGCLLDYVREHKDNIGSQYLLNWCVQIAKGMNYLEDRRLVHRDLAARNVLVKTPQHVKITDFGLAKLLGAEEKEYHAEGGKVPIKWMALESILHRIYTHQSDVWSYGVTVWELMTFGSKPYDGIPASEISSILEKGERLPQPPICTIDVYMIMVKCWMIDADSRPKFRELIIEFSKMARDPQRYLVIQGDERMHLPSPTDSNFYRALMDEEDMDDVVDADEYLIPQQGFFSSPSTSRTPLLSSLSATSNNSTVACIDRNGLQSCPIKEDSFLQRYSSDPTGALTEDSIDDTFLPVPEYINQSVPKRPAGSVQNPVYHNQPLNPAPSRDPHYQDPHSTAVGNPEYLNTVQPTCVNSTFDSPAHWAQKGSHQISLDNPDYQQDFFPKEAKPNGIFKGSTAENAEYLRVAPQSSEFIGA

For the compound `COc1cc(N2CCC(N3CCN(C)CC3)CC2)c(CC2CC2)cc1Nc1ncc(F)c(Nc2ccc3nccnc3c2N(C)S(=O)(=O)C2CC2)n1` [Compound I-251], the IC50 fell in the range of 50 to 500 nM in assay [1]; 500 to 2500 nM in assay [2]; 50 to 500 nM in assay [3]; 50 to 500 nM in assay [4]; 50 to 500 nM in assay [5]; 500 to 2500 nM in assay [6].

`CCc1cc(Nc2ncc(F)c(Nc3ccc4nccnc4c3N(C)S(=O)(=O)C3CC3)n2)c(OC)cc1N1CCC(N(C)C)CC1` [Compound I-252]: the IC50 in assay [1] was no more than 50 nM; in assay [2], 50 to 500 nM; in assay [3], no more than 50 nM; in assay [4], no more than 50 nM; in assay [5], no more than 50 nM; in assay [6] it was 50 to 500 nM.

For the compound `CCc1cc(Nc2ncc(Cl)c(Nc3ccc4nccnc4c3N(C)S(=O)(=O)C(C)C)n2)c(OC)nc1N1CCC(N2CCN(C)CC2)CC1` [Compound I-253], the IC50 in assay [1] is 50 to 500 nM; in assay [2] it was 50 to 500 nM; in assay [3], 50 to 500 nM; in assay [4], 50 to 500 nM; in assay [5] it was no more than 50 nM; in assay [6] it was no more than 50 nM.

Consider `COc1cc(N2CCC(N3CCN(C)CC3)CC2)c(CC2CC2)cc1Nc1ncc(Cl)c(Nc2ccc3nccnc3c2N(C)S(=O)(=O)C(C)C)n1` [Compound I-254], for which the IC50 was 50 to 500 nM in assay [1]; 50 to 500 nM in assay [2]; 50 to 500 nM in assay [3]; 50 to 500 nM in assay [4]; 50 to 500 nM in assay [5]; no more than 50 nM in assay [6].

For the compound `CCc1cc(Nc2ncc(Cl)c(Nc3ccc4nccnc4c3N(C)S(=O)(=O)C(C)C)n2)c(OC)cc1N1CCN(C)CC1` [Compound I-255], the IC50 in assay [1] was 50 to 500 nM; in assay [2], 50 to 500 nM; in assay [3] it was 50 to 500 nM; in assay [4], 50 to 500 nM; in assay [5], no more than 50 nM; in assay [6], no more than 50 nM.

In the case of `COc1cc(N2CCC(N3CCN(C)CC3)CC2)ccc1Nc1ncc(Br)c(Nc2ccc3nccnc3c2N(C)S(=O)(=O)C(F)(F)F)n1` [Compound I-256], the IC50 in assay [1] lay in the range of 500 to 2500 nM; in assay [2], 50 to 500 nM; in assay [3], 500 to 2500 nM; in assay [4], 50 to 500 nM; in assay [5], 50 to 500 nM; in assay [6] it was 500 to 2500 nM.

Take `CCc1cc(Nc2ncc(Br)c(Nc3ccc4nccnc4c3N(C)S(=O)(=O)C(F)(F)F)n2)c(OC)nc1N1CCC(N2CCN(C)CC2)CC1` [Compound I-257]: the IC50 in assay [1] was 500 to 2500 nM; in assay [2] it was 50 to 500 nM; in assay [3] it was 500 to 2500 nM; in assay [4] it was 50 to 500 nM; in assay [5] it was no more than 50 nM; in assay [6] it was 50 to 500 nM.

Consider `C=Cc1cc(Nc2ncc(Br)c(Nc3ccc4nccnc4c3N(C)S(=O)(=O)C(F)(F)F)n2)c(OC(F)(F)F)cc1N1CCC(N2CCN(C)CC2)CC1` [Compound I-258], for which the IC50 in assay [1] is 500 to 2500 nM; in assay [2], 50 to 500 nM; in assay [3], 500 to 2500 nM; in assay [4], 50 to 500 nM; in assay [5], no more than 50 nM; in assay [6], 50 to 500 nM.

For `COc1cc(N2CCC(N3CCN(C)CC3)CC2)c(CC2CC2)cc1Nc1ncc(Br)c(Nc2ccc3nccnc3c2N(C)S(=O)(=O)C(F)(F)F)n1` [Compound I-259], the IC50 in assay [1] fell in the range of 500 to 2500 nM; in assay [2], 50 to 500 nM; in assay [3], 500 to 2500 nM; in assay [4], 500 to 2500 nM; in assay [5] it was 50 to 500 nM; in assay [6] it was 500 to 2500 nM.

`CCc1cc(Nc2ncc(Br)c(Nc3ccc4nccnc4c3N(C)S(=O)(=O)C(F)(F)F)n2)c(OC)cc1N1CCN(C)CC1` [Compound I-260]: the IC50 is 500 to 2500 nM in assay [1]; 50 to 500 nM in assay [2]; 500 to 2500 nM in assay [3]; 50 to 500 nM in assay [4]; no more than 50 nM in assay [5]; 50 to 500 nM in assay [6].

`COc1cc(N2CCC(N3CCN(C)CC3)CC2)ccc1Nc1ncc(Cl)c(Nc2ccc3nccnc3c2N(C)S(=O)(=O)C(F)(F)F)n1` [Compound I-261]: the IC50 is 500 to 2500 nM in assay [1]; 50 to 500 nM in assay [2]; 500 to 2500 nM in assay [3]; 50 to 500 nM in assay [4]; 50 to 500 nM in assay [5]; 50 to 500 nM in assay [6].

Take `CCc1cc(Nc2ncc(Cl)c(Nc3ccc4nccnc4c3N(C)S(=O)(=O)C(F)(F)F)n2)c(OC)nc1N1CCC(N2CCN(C)CC2)CC1` [Compound I-262]: the IC50 in assay [1] was 500 to 2500 nM; in assay [2], 50 to 500 nM; in assay [3], 500 to 2500 nM; in assay [4], 500 to 2500 nM; in assay [5] it was 50 to 500 nM; in assay [6] it was 50 to 500 nM.

For the compound `C=Cc1cc(Nc2ncc(Cl)c(Nc3ccc4nccnc4c3N(C)S(=O)(=O)C(F)(F)F)n2)c(OC(F)(F)F)cc1N1CCC(N2CCN(C)CC2)CC1` [Compound I-263], the IC50 in assay [1] was in the range of 500 to 2500 nM; in assay [2], 50 to 500 nM; in assay [3], 500 to 2500 nM; in assay [4], 500 to 2500 nM; in assay [5] it was 50 to 500 nM; in assay [6], 50 to 500 nM.

As for `COc1cc(N2CCC(N3CCN(C)CC3)CC2)c(CC2CC2)cc1Nc1ncc(Cl)c(Nc2ccc3nccnc3c2N(C)S(=O)(=O)C(F)(F)F)n1` [Compound I-264], the IC50 was 500 to 2500 nM in assay [1]; 50 to 500 nM in assay [2]; 500 to 2500 nM in assay [3]; 500 to 2500 nM in assay [4]; 50 to 500 nM in assay [5]; 500 to 2500 nM in assay [6].

Regarding `COc1cc(N2CCC(N(C)C)CC2)c(C)cc1Nc1ncc(Cl)c(Nc2ccc3nccnc3c2N(C)S(=O)(=O)C(F)(F)F)n1` [Compound I-265], the IC50 lay in the range of 500 to 2500 nM in assay [1]; 50 to 500 nM in assay [2]; 500 to 2500 nM in assay [3]; 500 to 2500 nM in assay [4]; 50 to 500 nM in assay [5]; 500 to 2500 nM in assay [6].

In the case of `COc1cc(N2CCN(C)CC2)c(C)cc1Nc1ncc(Cl)c(Nc2ccc3nccnc3c2N(C)S(=O)(=O)C(F)(F)F)n1` [Compound I-266], the IC50 lay within 500 to 2500 nM in assay [1]; 50 to 500 nM in assay [2]; 500 to 2500 nM in assay [3]; 500 to 2500 nM in assay [4]; 500 to 2500 nM in assay [5]; 500 to 2500 nM in assay [6].

Regarding `CCc1cc(Nc2ncc(Cl)c(Nc3ccc4nccnc4c3N(C)S(=O)(=O)C(F)(F)F)n2)c(OC)cc1N1CCN(C)CC1` [Compound I-267], the IC50 in assay [1], in assay [2], in assay [3], in assay [4], in assay [5] and in assay [6] was 50 to 500 nM in each case.

As for `COc1cc(N2CCC(N(C)C)C2)c(C)cc1Nc1ncc(Cl)c(Nc2ccc3nccnc3c2N(C)S(=O)(=O)C(F)(F)F)n1` (stereo not drawn) [Compound I-268], the IC50 in assay [1] lay within 500 to 2500 nM; in assay [2], 50 to 500 nM; in assay [3], 500 to 2500 nM; in assay [4], 500 to 2500 nM; in assay [5] it was 50 to 500 nM; in assay [6], 500 to 2500 nM.

Take `CCc1cc(Nc2ncc(C3CC3)c(Nc3ccc4nccnc4c3N(C)S(C)(=O)=O)n2)c(OC)cc1N1CCC(N2CCN(C)CC2)CC1` [Compound I-269]: the IC50 in assay [1], in assay [2], in assay [3], in assay [4], in assay [5] and in assay [6] was no more than 50 nM each time.

As to `CCc1cc(Nc2ncc(C3CC3)c(Nc3ccc4nccnc4c3N(C)S(C)(=O)=O)n2)c(OC)nc1N1CCC(N2CCN(C)CC2)CC1` [Compound I-270], the IC50 in assay [1] was 50 to 500 nM; in assay [2] it was no more than 50 nM; in assay [3] it was no more than 50 nM; in assay [4], 50 to 500 nM; in assay [5], no more than 50 nM; in assay [6] it was 50 to 500 nM.

In the case of `C=Cc1cc(Nc2ncc(C3CC3)c(Nc3ccc4nccnc4c3N(C)S(C)(=O)=O)n2)c(OC(F)(F)F)cc1N1CCC(N2CCN(C)CC2)CC1` [Compound I-271], the IC50 was 50 to 500 nM in assay [1]; no more than 50 nM in assay [2]; 50 to 500 nM in assay [3]; 50 to 500 nM in assay [4]; no more than 50 nM in assay [5]; 50 to 500 nM in assay [6].

As for `COc1cc(N2CCC(N(C)C)CC2)c(C)cc1Nc1ncc(C2CC2)c(Nc2ccc3nccnc3c2N(C)S(C)(=O)=O)n1` [Compound I-272], the IC50 in assay [1], in assay [2], in assay [3], in assay [4], in assay [5] and in assay [6] was no more than 50 nM in each case.
